The source of these data is patent US5264443A, “3-aryl oxazolidinone compounds and therapeutic use thereof” (Delalande S.A., priority 1991, dated 1993).

Structures are written as SMILES.

The subject of this assay is 5-hydroxy tryptophan (5-HTP). The assay is described as follows: potentialisation of 5-HTP in the rat (anti-depressive activity). In kind it is in vivo. The note with it: 1 h, oral administration, 5-HTP intraperitoneally one hour after the first treatment, read-out: ED50 (dose producing generalised tremors or stereotypy in 50% of the animals). From the text: The anti-depressive activity was shown by the test of potentialisation of 5-HTP in the rat by the method described by M. JALFRE, B. BUCHER, A. COSTON, G. MOCQUET and R. D. PORSOLT: Arch. Int. Pharmacodyn., (1982), 259, 194-221. A determination on the rat was made of that dose of the product which, orally administered, produces generalised tremors or stereotypy (drumming, head movements) in 50% of the animals (ED50) after intraperitoneal administration of 5-hydroxy tryptophan (5-HTP) one hour after the first treatment. The results obtained in the preceding test, using some compounds according to the invention, are given by way of example in the following table: […]
What is called ED50 is the midpoint of the dose-response relation. As to `COC[C@H]1CN(c2ccc(OCC[C@@H](OCc3ccncc3)C(F)(F)F)cc2)C(=O)O1` [MD 290057, 3-[4-[4,4,4-trifluoro 3-(4-pyridylmethoxy)(R)butoxy]phenyl]5-methoxymethyl(R)2-oxazolidinone], the ED50 is 0.53 mg/kg.
Turning to `COC[C@H]1CN(c2ccc(OCC[C@@H](OCc3ccc[n+]([O-])c3)C(F)(F)F)cc2)C(=O)O1` [MD 290065, 3-[4-[4,4,4-trifluoro3-(3-N-oxide-pyridylmethoxy)(R)butoxy]phenyl]5-methoxymethyl(R) 2-oxazolidinone], the ED50 was found to be 0.62 mg/kg.
Consider `COC[C@H]1CN(c2ccc(OCC[C@@H](OCc3cccnc3)C(F)(F)F)cc2)C(=O)O1` [MD 360411 (oxalate), 3-[4-[4,4,4-trifluoro 3-(3-pyridylmethoxy)(R)butoxy]phenyl]5-methoxymethyl(R)2-oxazolidinone], for which the ED50 amounted to 0.4 mg/kg.
